Test results: the NIST ThermoML archive (doi:10.1016/j.tca.2014.09.007)
± gives the expanded uncertainty stated by the source.

Legend:
[1] = Molar enthalpy of transition or fusion; settings: Crystal; DSC
[2] = DTA

Molar enthalpy of transition or fusion [1]: 7.65 ± 0.222 kcal/mol
Normal melting temperature ([2]; Crystal): 125.90 ± 0.5 °C
Glass transition temperature ([2]; Glass): 25.00 ± 4 °C
Structure (SMILES): CC(C)(Sc1cc(C(C)(C)C)c(O)c(C(C)(C)C)c1)Sc1cc(C(C)(C)C)c(O)c(C(C)(C)C)c1 [probucol]
